The experiment addresses Na+/K+ ATPase. The experiment can be described thus: colorimetric ATPase assay. Format: biochemical, Sus scrofa.

Structures are written as SMILES.

One may read the IC50 as the concentration that inhibits the measured activity by half. Lower therefore signals greater potency in that assay. `C[C@@H]1O[C@@H](O[C@H]2CC[C@@]3(C)[C@H](CC[C@@H]4[C@@H]3CC[C@]3(C)[C@@H](C5=CC(=O)OC5)CC[C@]43O)C2)[C@H](O)[C@H](O)[C@H]1O` [D6-MA] registered an IC50 of 1100 nM.
Next, `C[C@H]1O[C@@H](O[C@H]2[C@@H](O)C[C@H](O[C@H]3[C@@H](O)C[C@H](O[C@H]4CC[C@@]5(C)[C@H](CC[C@@H]6[C@@H]5CC[C@]5(C)[C@@H](C7=CC(=O)OC7)CC[C@]65O)C4)O[C@@H]3C)O[C@@H]2C)C[C@H](O)[C@@H]1O` [Digitoxin]: 2800 nM.

These data come from paper PMC3254807 (2011).
